Among the data in ChEMBL document CHEMBL1149493, “Benzodiazepine calcitonin gene-related peptide (CGRP) receptor antagonists: optimization of the 4-substituted piperidine” (Bioorg Med Chem Lett, 2006) are Ki, IC50 and Activity values, retold here.

Calls of active or inactive are those of the source. The calls are words filed in the database; no cut-off is given here.

Assay [1] deals with T1, Calcitonin gene-related peptide type 1 receptor (Homo sapiens, UniProt O60894+Q16602). As to the kind of experiment: (§1) Displacement of [125I]CGRP from human recombinant CGRP receptor.
Assay [2] deals with T1, Calcitonin gene-related peptide type 1 receptor. In words: Activity at CGRP receptor assessed as inhibition of CGRP-stimulated cAMP production. It is filed as functional.
For assay [3], the target named is Calcitonin gene-related peptide type 1 receptor (Homo sapiens) (UniProt Q16602). The description is as §1.
Sequence of Calcitonin gene-related peptide type 1 receptor (Homo sapiens) (Q16602 whole entry): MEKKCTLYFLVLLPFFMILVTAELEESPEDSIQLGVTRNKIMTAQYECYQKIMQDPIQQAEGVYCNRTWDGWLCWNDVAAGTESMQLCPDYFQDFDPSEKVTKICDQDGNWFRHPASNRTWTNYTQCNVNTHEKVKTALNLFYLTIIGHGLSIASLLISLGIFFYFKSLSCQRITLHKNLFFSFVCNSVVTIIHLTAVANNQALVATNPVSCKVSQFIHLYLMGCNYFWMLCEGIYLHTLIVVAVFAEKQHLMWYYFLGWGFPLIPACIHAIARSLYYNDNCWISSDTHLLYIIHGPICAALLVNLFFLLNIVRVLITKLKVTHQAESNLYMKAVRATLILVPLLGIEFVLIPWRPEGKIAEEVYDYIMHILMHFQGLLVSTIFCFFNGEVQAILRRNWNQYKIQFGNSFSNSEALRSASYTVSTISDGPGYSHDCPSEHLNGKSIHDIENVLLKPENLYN

T1 sequence (Q16602 whole entry, one chain of several): as the sequence (Q16602 whole entry) above

`O=C(N[C@@H]1N=C(c2ccccc2)c2ccccc2N(CC(F)(F)F)C1=O)N1CCC(N2CCNC2=O)CC1`: the inhibitory constant (Ki) in assay [1] is 855 nM. Further, the 50% inhibitory concentration (IC50) in assay [2] worked out at 3100 nM.

Turning to `O=C(N[C@@H]1N=C(c2ccccc2)c2ccccc2N(CC(F)(F)F)C1=O)N1CCC(N2CC(c3ccncc3)NC2=O)CC1` (stereo partly specified), the inhibitory constant (Ki) in assay [1] is 720 nM. Besides, the IC50 in assay [2] was found to be 804 nM.

`O=C(N[C@@H]1N=C(c2ccccc2)c2ccccc2N(CC(F)(F)F)C1=O)N1CCC(n2cc(CO)[nH]c2=O)CC1`: in assay [1], the inhibitory constant (Ki) turned out to be 20000 nM.

With `O=C(N[C@@H]1N=C(c2ccccc2)c2ccccc2N(CC(F)(F)F)C1=O)N1CCC(n2cc[nH]c2=O)CC1`, the inhibition constant (Ki) in assay [1] is 583 nM. For the same compound, the half-maximal inhibitory concentration (IC50) in assay [2] is 672 nM.

`O=C(N[C@@H]1N=C(c2ccccc2)c2ccccc2N(CC(F)(F)F)C1=O)N1CCC(n2c(O)nc3c(F)cccc32)CC1`: the inhibitory constant (Ki) in assay [1] amounted to 375 nM. Besides, the IC50 in assay [2] was 373 nM.

As for `NC(=O)c1ccc2c(c1)[nH]c(=O)n2C1CCN(C(=O)N[C@@H]2N=C(c3ccccc3)c3ccccc3N(CC(F)(F)F)C2=O)CC1`, the Ki in assay [1] is 1050 nM.

In the case of `CC(C)c1cn(C2CCN(C(=O)N[C@@H]3N=C(c4ccccc4)c4ccccc4N(CC(F)(F)F)C3=O)CC2)c(=O)[nH]1`, in assay [1], the inhibition constant Ki was determined as 5340 nM.

With `O=C(N[C@@H]1N=C(c2ccccc2)c2ccccc2N(CC(F)(F)F)C1=O)N1CCC(N2CC(c3cccnc3)NC2=O)CC1` (stereo partly specified), the Ki in assay [1] is 1050 nM.

On to `Cc1cccc2c1nc(O)n2C1CCN(C(=O)N[C@@H]2N=C(c3ccccc3)c3ccccc3N(CC(F)(F)F)C2=O)CC1`, for which the inhibitory constant (Ki) in assay [1] was 6900 nM.

As for `COc1cccc(-c2cn(C3CCN(C(=O)N[C@@H]4N=C(c5ccccc5)c5ccccc5N(CC(F)(F)F)C4=O)CC3)c(O)n2)c1`, the inhibitory constant (Ki) in assay [1] was 1.1 nM. Besides, the IC50 in assay [2] is 5.1 nM.

On to `O=C(N[C@@H]1N=C(c2ccccc2)c2ccccc2N(CC(F)(F)F)C1=O)N1CCC(n2c(=O)[nH]c3ccncc32)CC1`, for which, in assay [1], the inhibition constant (Ki) turned out to be 853 nM. Also, the IC50 in assay [2] turned out to be 1400 nM.

As to `O=C(N[C@@H]1N=C(c2ccccc2)c2ccccc2N(CC(F)(F)F)C1=O)N1CCC(n2c(O)nc3c2ccc[n+]3[O-])CC1`, the inhibitory constant (Ki) in assay [1] was found to be 1000 nM.

`O=C(N[C@@H]1N=C(c2ccccc2)c2ccccc2N(CC(F)(F)F)C1=O)N1CCC(n2cc(-c3ccc(OC(F)(F)F)cc3)[nH]c2=O)CC1`: the inhibition constant Ki in assay [1] stood at 104 nM. Further, the half-inhibitory concentration (IC50) in assay [2] was determined as 431 nM.

For `COc1ccc(-c2cn(C3CCN(C(=O)N[C@@H]4N=C(c5ccccc5)c5ccccc5N(CC(F)(F)F)C4=O)CC3)c(=O)[nH]2)cc1`, the inhibition constant (Ki) in assay [1] came out at 205 nM. Further, the 50% inhibitory concentration (IC50) in assay [2] was 193 nM.

Take `O=C(N[C@@H]1N=C(c2ccccc2)c2ccccc2N(CC(F)(F)F)C1=O)N1CCC(n2c(=O)[nH]c3cnccc32)CC1`: the Ki in assay [1] amounted to 685 nM. The half-maximal inhibitory concentration (IC50) in assay [2] amounted to 1380 nM.

For `O=C(N[C@@H]1N=C(c2ccccc2)c2ccccc2N(CC(F)(F)F)C1=O)N1CCC(n2c(O)nc3cc(C(F)(F)F)ccc32)CC1`, the inhibition constant (Ki) in assay [1] amounted to 3800 nM.

Regarding `O=C(N[C@@H]1N=C(c2ccccc2)c2ccccc2N(CC(F)(F)F)C1=O)N1CCC(N2Cc3cccnc3NC2=O)CC1`, in assay [1], the Ki came out at 295 nM. Also, in assay [2], the IC50 is 616 nM.

For `Cc1ccc2c(c1)[nH]c(=O)n2C1CCN(C(=O)N[C@@H]2N=C(c3ccccc3)c3ccccc3N(CC(F)(F)F)C2=O)CC1`, the Ki in assay [1] came out at 6100 nM.

In the case of `O=C(N[C@@H]1N=C(c2ccccc2)c2ccccc2N(CC(F)(F)F)C1=O)N1CCC(n2c(O)nc3c(Cl)cccc32)CC1`, the Ki in assay [1] was found to be 143 nM. In addition, the half-maximal inhibitory concentration (IC50) in assay [2] is 446 nM.

For the compound `O=C(N[C@@H]1N=C(c2ccccc2)c2ccccc2N(CC(F)(F)F)C1=O)N1CCC(n2cc(-c3cccc(F)c3)nc2O)CC1`, in assay [1], the inhibition constant Ki was 11 nM. Also, the IC50 in assay [2] stood at 46 nM.

Regarding `O=C(N[C@@H]1N=C(c2ccccc2)c2ccccc2N(CC(F)(F)F)C1=O)N1CCC(N2Cc3ccccc3NC2=O)CC1`, in assay [1], the Ki came out at 48 nM. In assay [2], the IC50 came to 34 nM.

Take `O=C(N[C@@H]1N=C(c2ccccc2)c2ccccc2N(CC(F)(F)F)C1=O)N1CCC(n2c(=O)[nH]c3ncncc32)CC1`: the Ki in assay [1] is 51 nM. For the same compound, in assay [2], the 50% inhibitory concentration (IC50) was determined as 430 nM.

In the case of `O=C(N[C@@H]1N=C(c2ccccc2)c2ccccc2N(CC(F)(F)F)C1=O)N1CCC(n2nc(-c3ccccc3)[nH]c2=O)CC1`, in assay [1], the inhibition constant Ki was 26 nM. Also, the IC50 in assay [2] amounted to 100 nM.

Consider `O=C(N[C@@H]1N=C(c2ccccc2)c2ccccc2N(CC(F)(F)F)C1=O)N1CCC(n2cc(-c3ccccc3)[nH]c2=O)CC1`, for which the inhibition constant Ki in assay [1] was 11 nM. For the same compound, the concentration for half-maximal inhibition (IC50) in assay [2] turned out to be 14 nM.

On to `O=C(N[C@@H]1N=C(c2ccccc2)c2ccccc2N(CC(F)(F)F)C1=O)N1CCC(n2c(O)nc3cc(F)ccc32)CC1`, for which, in assay [1], the Ki amounted to 2800 nM.

In the case of `O=C(N[C@@H]1N=C(c2ccccc2)c2ccccc2N(CC(F)(F)F)C1=O)N1CCC(n2c(=O)[nH]c3ncccc32)CC1`, the Ki in assay [1] is 23 nM. In assay [2], the half-inhibitory concentration (IC50) came to 49 nM.

As to `O=C(N[C@@H]1N=C(c2ccccc2)c2ccccc2N(CC(F)(F)F)C1=O)N1CCC(n2c(=O)[nH]c3nccnc32)CC1`, the Ki in assay [1] stood at 156 nM. Moreover, in assay [2], the IC50 turned out to be 286 nM.

Regarding `O=C(N[C@@H]1N=C(c2ccccc2)c2ccccc2N(CC(F)(F)F)C1=O)N1CCC(N2C(=O)NCc3ccccc32)CC1`, the result in assay [3] was inactive.

For `N#Cc1cn(C2CCN(C(=O)N[C@@H]3N=C(c4ccccc4)c4ccccc4N(CC(F)(F)F)C3=O)CC2)c(=O)[nH]1`, the inhibitory constant (Ki) in assay [1] was 575 nM. In assay [2], the IC50 was 990 nM.

As for `O=C(N[C@@H]1N=C(c2ccccc2)c2ccccc2N(CC(F)(F)F)C1=O)N1CCC(n2cc(-c3ccccn3)[nH]c2=O)CC1`, the inhibitory constant (Ki) in assay [1] was 27 nM. Further, the IC50 in assay [2] turned out to be 37 nM.

In the case of `O=C(N[C@@H]1N=C(c2ccccc2)c2ccccc2N(CC(F)(F)F)C1=O)N1CCC(n2c(=O)[nH]c3ccc(F)cc32)CC1`, in assay [1], the Ki was 983 nM. For the same compound, the half-inhibitory concentration (IC50) in assay [2] worked out at 1400 nM.

In the case of `O=C(N[C@@H]1N=C(c2ccccc2)c2ccccc2N(CC(F)(F)F)C1=O)N1CCC(N2Cc3ccncc3NC2=O)CC1`, the inhibition constant (Ki) in assay [1] stood at 350 nM. In assay [2], the concentration for half-maximal inhibition (IC50) was 224 nM.

Consider `CS(=O)(=O)c1ccc2c(c1)[nH]c(=O)n2C1CCN(C(=O)N[C@@H]2N=C(c3ccccc3)c3ccccc3N(CC(F)(F)F)C2=O)CC1`, for which, in assay [1], the Ki was 260 nM. Also, in assay [2], the IC50 is 220 nM.

Take `Cc1ccc(-c2cn(C3CCN(C(=O)N[C@@H]4N=C(c5ccccc5)c5ccccc5N(CC(F)(F)F)C4=O)CC3)c(=O)[nH]2)cc1`: the Ki in assay [1] turned out to be 6.3 nM. Besides, in assay [2], the IC50 turned out to be 85 nM.

Take `O=C(N[C@@H]1N=C(c2ccccc2)c2ccccc2N(CC(F)(F)F)C1=O)N1CCC(n2c(O)nc3cccc(Cl)c32)CC1`: the Ki in assay [1] worked out at 6400 nM.

Regarding `O=C(N[C@@H]1N=C(c2ccccc2)c2ccccc2N(CC(F)(F)F)C1=O)N1CCC(n2c(=O)[nH]c3cccnc32)CC1`, in assay [1], the Ki was 427 nM. For the same compound, in assay [2], the IC50 was 1140 nM.

`O=C(N[C@@H]1N=C(c2ccccc2)c2ccccc2N(CC(F)(F)F)C1=O)N1CCC(N2Cc3cnccc3NC2=O)CC1`: the Ki in assay [1] was determined as 320 nM. Moreover, the half-inhibitory concentration (IC50) in assay [2] was 627 nM.

For `O=C(N[C@@H]1N=C(c2ccccc2)c2ccccc2N(CC(F)(F)F)C1=O)N1CCC(N2Cc3ncccc3NC2=O)CC1`, the Ki in assay [1] is 965 nM. Further, the IC50 in assay [2] stood at 1840 nM.

With `O=C(O)c1ccc2c(c1)[nH]c(=O)n2C1CCN(C(=O)N[C@@H]2N=C(c3ccccc3)c3ccccc3N(CC(F)(F)F)C2=O)CC1`, the inhibition constant Ki in assay [1] worked out at 810 nM. In addition, in assay [2], the 50% inhibitory concentration (IC50) amounted to 715 nM.

In the case of `O=C(N[C@@H]1N=C(c2ccccc2)c2ccccc2N(CC(F)(F)F)C1=O)N1CCC(N2CC(c3ccccn3)NC2=O)CC1` (stereo partly specified), the Ki in assay [1] stood at 2000 nM.

Regarding `O=C(N[C@@H]1N=C(c2ccccc2)c2ccccc2N(CC(F)(F)F)C1=O)N1CCC(n2c(=O)[nH]c3c4ccccc4ccc32)CC1`, the inhibition constant (Ki) in assay [1] amounted to 27 nM. Moreover, the IC50 in assay [2] was 369 nM.

`O=C(N[C@@H]1N=C(c2ccccc2)c2ccccc2N(CC(F)(F)F)C1=O)N1CCC(N2CC(c3ccccc3)NC2=O)CC1` (stereo partly specified): the Ki in assay [1] was determined as 339 nM. Moreover, the concentration for half-maximal inhibition (IC50) in assay [2] came out at 790 nM.

As for `O=C1CN(C2CCN(C(=O)N[C@@H]3N=C(c4ccccc4)c4ccccc4N(CC(F)(F)F)C3=O)CC2)C(=O)N1`, the Ki in assay [1] turned out to be 29 nM. The 50% inhibitory concentration (IC50) in assay [2] was 100 nM.

On to `O=C(N[C@@H]1N=C(c2ccccc2)c2ccccc2N(CC(F)(F)F)C1=O)N1CCC(n2cc(-c3ccc(OC(F)F)cc3)nc2O)CC1`, for which the inhibitory constant (Ki) in assay [1] is 19 nM. In assay [2], the concentration for half-maximal inhibition (IC50) turned out to be 74 nM.

For `COC(=O)c1cn(C2CCN(C(=O)N[C@@H]3N=C(c4ccccc4)c4ccccc4N(CC(F)(F)F)C3=O)CC2)c(=O)[nH]1`, the Ki in assay [1] was 110 nM. For the same compound, the half-inhibitory concentration (IC50) in assay [2] worked out at 156 nM.

On to `O=C(N[C@@H]1N=C(c2ccccc2)c2ccccc2N(CC(F)(F)F)C1=O)N1CCC(n2c(=O)[nH]c3ccccc32)CC1`, for which, in assay [1], the Ki was 2250 nM.

For the compound `O=C(N[C@@H]1N=C(c2ccccc2)c2ccccc2N(CC(F)(F)F)C1=O)N1CCC(n2cc(-c3ccc(F)cc3)[nH]c2=O)CC1`, the inhibition constant (Ki) in assay [1] worked out at 11 nM. In assay [2], the 50% inhibitory concentration (IC50) was found to be 107 nM.

For `O=C(N[C@@H]1N=C(c2ccccc2)c2ccccc2N(CC(F)(F)F)C1=O)N1CCC(n2cc(Cc3ccccc3)[nH]c2=O)CC1`, the inhibition constant Ki in assay [1] is 1130 nM. Besides, the half-maximal inhibitory concentration (IC50) in assay [2] came out at 450 nM.

In the case of `Cc1cccc2nc(O)n(C3CCN(C(=O)N[C@@H]4N=C(c5ccccc5)c5ccccc5N(CC(F)(F)F)C4=O)CC3)c12`, the inhibitory constant (Ki) in assay [1] came to 20000 nM.

Take `O=C(N[C@@H]1N=C(c2ccccc2)c2ccccc2N(CC(F)(F)F)C1=O)N1CCC(n2c(O)nc3cc(Cl)ccc32)CC1`: in assay [1], the inhibition constant Ki was above 10000 nM.

With `O=C(O)c1cn(C2CCN(C(=O)N[C@@H]3N=C(c4ccccc4)c4ccccc4N(CC(F)(F)F)C3=O)CC2)c(=O)[nH]1`, in assay [1], the Ki amounted to 2900 nM.
